Data published in US20250296971A1, “GASTRIC INHIBITORY PEPTIDE RECEPTOR LIGANDS” (priority 2021, published 2025).
Like-named read-outs stand apart in the source and are kept apart here. *1 amine or outer side, *2 acyl side, *3 side chain or, on linkers, in order; H or OH if unused. Where a SMILES comes first, the peptide text is derived from it. Bridges are numbered along the chain shown (N, C = ends). [ ]: non-standard residue; d: D form. The star is where a group is joined. X11 = O=C(CN1CCN2CCN3CCN(CC1)CC(=O)[O][In]([O]C(=O)C2)[O]C(=O)C3)NCCCOCCOCCOCCCN*; X13 = O=C(CN1CCN2CCN3CCN(CC1)CC(=O)[O][Lu]([O]C(=O)C2)[O]C(=O)C3)NCCCOCCOCCOCCCN*; DOTA(In) = O=C1CN2CCN3CCN(CC(=O)*)CCN(CC2)CC(=O)[O][In]([O]1)[O]C(=O)C3; Trp(5-Cl) = N[C@@H](Cc1c[nH]c2ccc(Cl)cc12)C(=O)O; X6 = c1cc(CSCCN[*:2])nc(C[*:1])c1; X7 = c1cc(CSCCN[*:2])cc(C[*:1])c1; Hyp = O=C(O)[C@@H]1C[C@@H](O)CN1; X1 = O=C(CN1CCC(N[*:1])CC1)[*:2]; Suc = O=C(CCC(=O)[*:2])[*:1]; Api = NC1(C(=O)O)CCNCC1; Thp = NC1(C(=O)O)CCOCC1; Aib = CC(C)(N)C(=O)O

What was measured:
[1] = target: T1, GIPR (CHO-K1-hGIPR cells) (Homo sapiens, UniProt P48546); assay: FACS binding assay; details: competition with 20 nM GIP-057, 4° C., 1 hour
T1 construct: host or cells: CHO-K1
T1 sequence (P48546 22-466): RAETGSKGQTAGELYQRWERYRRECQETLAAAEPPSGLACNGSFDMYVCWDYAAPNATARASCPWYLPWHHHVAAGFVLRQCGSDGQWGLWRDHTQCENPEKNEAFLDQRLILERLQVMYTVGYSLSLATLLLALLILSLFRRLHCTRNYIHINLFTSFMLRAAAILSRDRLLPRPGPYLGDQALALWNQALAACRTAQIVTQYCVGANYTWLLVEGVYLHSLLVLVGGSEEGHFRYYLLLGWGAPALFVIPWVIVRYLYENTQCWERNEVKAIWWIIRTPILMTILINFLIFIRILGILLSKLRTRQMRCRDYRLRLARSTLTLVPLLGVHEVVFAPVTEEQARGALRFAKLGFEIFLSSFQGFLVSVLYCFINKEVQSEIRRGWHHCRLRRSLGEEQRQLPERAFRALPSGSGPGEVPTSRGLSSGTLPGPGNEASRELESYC
How it was run: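 Median fluorescence in the APC channel, measured on washed CHO-K1 cells overexpressing human GIPR, was fitted by four-parameter logistic regression against peptide concentration to yield EC50 or IC50 values. Secondary labelling used APC-streptavidin (1 μg/mL, 30 min, ice).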

[2] = target: T2, human GIP receptor (bioGIPR) (Homo sapiens, UniProt P48546); assay: Surface plasmon resonance (SPR) based binding assay; details: for t1/2 Category: SPR dissociation half-life
T2 construct: Biotinylate extracellular of the human GIP receptor (bioGIPR, Proteros biostructures GmbH, lot #02/2b); purchased Proteros biostructures GmbH lot #02/2b
T2 sequence (P48546 22-138 limits assumed): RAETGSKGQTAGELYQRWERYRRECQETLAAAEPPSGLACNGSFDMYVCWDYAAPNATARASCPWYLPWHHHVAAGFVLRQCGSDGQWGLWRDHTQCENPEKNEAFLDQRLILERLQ
How it was run: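 Binding was measured at 25 °C by single-cycle kinetics against a reference flow cell, with blank-run and drift correction, after capturing biotinylated GIPR extracellular domain to ~3500 RU. Running buffer: HBST, 0.1% DMSO. A 1:1 Langmuir model gave kinetic rates, KD, t1/2 and pKD.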

[3] = read-out: pIC50 Category (converted)
[4] = Single Cycle Kinetic mode, 25° C.
[5] = SPR, Single Cycle Kinetic mode, 25° C., 1:1 Langmuir binding model, read-out: pKD Category (converted)

Row | Compound | IC50 [1, 3] [nM] | t1/2 Category [2, 4] | Kd [2, 5] [nM] | IC50 ([1]; pIC50 Category) [nM] | Kd [2] [nM]
1 | CC[C@H](C)[C@@H]1NC(=O)[C@H](CC(C)C)NC(=O)C(C)(C)NC(=O)[C@@H](NC(=O)[C@@H](CC(C)C)NC(=O)[C@H](CCC(=O)O)NC(=O)[C@@H]2C[C@@H](O)CN2C(=O)[C@H](Cc2c[nH]c3ccc(Cl)cc23)NC(=O)[C@H](Cc2c[nH]c3ccccc23)NC(=O)[C@H](CC(=O)O)NC(=O)CCC(=O)NCCCOCCOCCOCCCNC(=O)CN2CCN3CCN4CCN(CC2)CC(=O)[O][In]([O]C(=O)C3)[O]C(=O)C4)CSCc2cccc(c2)CSCCNC1=O [GIP-151, InDOTA-Ttds-Asp-Trp-5Clw-Hyp-Glu-leu-[Cys(3MeBn)-Aib-Leu-Ile-AET]] ({X11-Suc}-DW[Trp(5-Cl)][Hyp]E[dL]C[Aib]LI; linker 7-C via X7) | < 10 | A (t1/2 values>15 min) | < 1 | – | –
2 | CC[C@H](C)[C@@H]1NC(=O)[C@H](CC(C)C)NC(=O)C(C)(C)NC(=O)[C@@H](NC(=O)[C@@H](CC(C)C)NC(=O)[C@H](CCC(=O)O)NC(=O)[C@@H]2CCCN2C(=O)[C@H](Cc2c[nH]c3ccc(Cl)cc23)NC(=O)[C@H](Cc2c[nH]c3ccccc23)NC(=O)[C@H](CC(=O)O)NC(=O)CN2CCC(NC(=O)CN3CCN4CCN5CCN(CC3)CC(=O)[O][In]([O]C(=O)C4)[O]C(=O)C5)CC2)CSCc2cccc(c2)CSCCNC1=O [GIP-153, InDOTA-APAc-Asp-Trp-5Clw-Pro-Glu-leu-[Cys(3MeBn)-Aib-Leu-Ile-AET]] ({DOTA(In)}-[X1]DW[Trp(5-Cl)]PE[dL]C[Aib]LI; linker 8-C via X7) | < 10 | – | < 1 | – | –
3 | CC[C@H](C)[C@@H]1NC(=O)[C@H](CC(C)C)NC(=O)C2(CCOCC2)NC(=O)[C@@H](NC(=O)[C@@H](CC(C)C)NC(=O)[C@H](CCC(=O)O)NC(=O)[C@@H]2C[C@@H](O)CN2C(=O)[C@H](Cc2c[nH]c3ccc(Cl)cc23)NC(=O)[C@H](Cc2c[nH]c3ccccc23)NC(=O)[C@H](CC(=O)O)NC(=O)CN2CCC(NC(=O)CN3CCN4CCN5CCN(CC3)CC(=O)[O][In]([O]C(=O)C4)[O]C(=O)C5)CC2)CSCc2cccc(n2)CSCCNC1=O [GIP-155, InDOTA-APAc-Asp-Trp-5Clw-Hyp-Glu-leu-[Cys(2Lut)-Thp-Leu-Ile-AET]] ({DOTA(In)}-[X1]DW[Trp(5-Cl)][Hyp]E[dL]C[Thp]LI; linker 8-C via X6) | < 10 | – | < 1 | – | –
4 | CC[C@H](C)[C@@H]1NC(=O)[C@H](CC(C)C)NC(=O)C(C)(C)NC(=O)[C@@H](NC(=O)[C@@H](CC(C)C)NC(=O)[C@H](CCC(=O)O)NC(=O)[C@@H]2CCCN2C(=O)[C@H](Cc2c[nH]c3ccc(Cl)cc23)NC(=O)[C@H](Cc2c[nH]c3ccccc23)NC(=O)[C@H](CC(=O)O)NC(=O)CCC(=O)NCCCOCCOCCOCCCNC(=O)CN2CCN3CCN4CCN(CC2)CC(=O)[O][Lu]([O]C(=O)C3)[O]C(=O)C4)CSCc2cccc(c2)CSCCNC1=O [GIP-167, LuDOTA-Ttds-Asp-Trp-5Clw-Pro-Glu-leu-[Cys(3MeBn)-Aib-Leu-Ile-AET]] ({X13-Suc}-DW[Trp(5-Cl)]PE[dL]C[Aib]LI; linker 7-C via X7) | – | A (t1/2 values>15 min) | – | < 10 | < 1
5 | CC[C@H](C)[C@@H]1NC(=O)[C@H](CC(C)C)NC(=O)C2(CCN(C(=O)CN3CCN4CCN5CCN(CC3)CC(=O)[O][In]([O]C(=O)C5)[O]C(=O)C4)CC2)NC(=O)[C@@H](NC(=O)[C@@H](CC(C)C)NC(=O)[C@H](CCC(=O)O)NC(=O)[C@@H]2C[C@@H](O)CN2C(=O)[C@H](Cc2c[nH]c3ccc(Cl)cc23)NC(=O)[C@H](Cc2c[nH]c3ccccc23)NC(=O)CCC(=O)O)CSCc2cccc(n2)CSCCNC1=O [GIP-169, HO-Succinyl-Trp-5Clw-Hyp-Glu-leu-[Cys(2Lut)-Apc(InDOTA)-Leu-Ile-AET]] (Suc-W[Trp(5-Cl)][Hyp]E[dL]C[Api](DOTA(In))LI; linker 6-C via X6) | – | – | < 1 | < 10 | –
